Results reported in patent US20110288154A1, “RNA Interference Mediated Inhibition of Epithelial Sodium Channel (ENaC) Gene Expression Using Short Interfering Nucleic Acid (siNA)” (MERCK & CO., INC., priority 2008, published 2011).
[invAb] = inverted abasic unit; m = 2'-O-methyl; r = 2'-OH (RNA); f = 2'-fluoro

Test system: mSCNN1A mRNA
Test: Screening of ENaCα siNAs in mouse NIH 3T3 cells (quantitative RT-PCR)
Type: cell-based
Set-up: Percent Reduction of the mSCNN1A mRNA relative to a non-targeting control siNA / Mouse % KD (efficacy of ENaCα mRNA knockdown): concentration or dose not given beside the values
Conditions: for Mean (mSCNN1A expression normalized to the level of m36B4) / Percent Reduction of the mSCNN1A mRNA relative to a non-targeting control siNA / Avg ENaCα Expression (mSCNN1A) / Avg 36B4 Expression: mouse NIH 3T3 cells, n = 3; for Mean (mSCNN1A expression normalized to the level of m36B4) / Percent Reduction of the mSCNN1A mRNA relative to a non-targeting control siNA / Avg 36B4 Expression: 24 hours post-transfection; for Avg ENaCα Expression (mSCNN1A): harvested 24 hours post-transfection; for Avg 36B4 Expression: housekeeping gene used for normalisation
Protocol: siNA constructs (Table 1b) may be tested for efficacy in reducing ENaC RNA expression in, for example, A549 human lung carcinoma cells. A549 (human; ATCC cat# CCL-185) cells were cultured at 37° C. in the presence of 5% CO2 and grown in Ham's F12K medium with 2 mM L-glutamine adjusted to contain 1.5 g/L sodium bicarbonate and supplemented with fetal bovine serum at a final concentration of 10% and 100 U/mL penicillin. The A549 cells were plated approximately 24 hours before transfection in 96-well plates at 7,500 cells/well, 100 μl/well. After 24 hours complexes containing siNA and Lipofectamine 2000 (Invitrogen) were created as follows: a solution of Lipofectamine 2000 in OPTI-MEM was prepared containing Lipofectamine 2000 at a final concentration of 14 μg/ml. In parallel, solutions of the siNAs were prepared in OPTI-MEM at a final concentration of 150 nM. After both solutions were incubated at 20° C. for 20 minutes an equal volume of the siNA solutions and the Lipofectamine 2000 solution were added together for each of the siNAs. The resultant solution has the siNAs at a final concentration of 75 nM and Lipofectamine 2000 at a final concentration of 7 μg/ml. This solution was incubated at 20° C. for 20 minutes. After incubation 50 μl of the solution were added to each of the wells (in triplicate). The final concentration of siNA in each well was 25 nM and the final concentration of Lipofectamine 2000 in each well was 2.33 μg/ml. The plates were incubated for 48 hours with no change of media before harvesting. Dose response curves were determined in a similar manner with each concentration being done in triplicate and maintaining a constant amount of Lipofectamine 2000 in each transfection.
A series of probes and primers were used to detect the various mRNA transcripts of the genes of ENaCa and GAPDH in mouse, rat, and human cell lines. The assays were performed on an ABI 7500 instrument, according to the manufacturer's instructions. Within each experiment, the baseline was set in the exponential phase of the amplification curve, and based on the intersection point of the baselines with the amplification curve, a Ct value was assigned by the instrument. This Ct value was then assigned a QTY value based on the Standard Curve. The standard curve in the various experiments herein used 1 ng to 300 ng of RNA extracted from the same cell line used for the experimental transfections.
All IC50 values were calculated from the data using GraphPad Prizm software, specifically a sigmoidal, variable slope curve for simple ligand binding. Also, unless otherwise indicated, all calculations of the efficacy and potency (e.g., % knockdown) of the siNAs were done relative to a non-targeting control siNA. If reported, P-values were computed using The Students t-test, including the Welch Correction for unequal variances.
In all of the calculations of the % knock-down of mRNA, the calculation was made relative to the normalized level of expression of the gene of interest in the samples treated with the non-targeting control (NTC) unless otherwise indicated. The gene of interest expression level was divided by the level of expression of GAPDH or 36B4 (depending on the species) in each sample. The three replicates for each condition in each experiment were averaged and the standard deviation of those samples was calculated. The following formula was then used to calculate the % of knock-down of the gene of interest:
The ENaCα siNAs were designed and synthesized as described previously. The siNAs were screened in three cell lines. Human A549 cells, mouse NIH 3T3 and Rat H-4-II-E cells. The data from the screen of ENaCa siNAs in all three species is shown in Tables 3a, 3b, 4a, 4b, 5a, and 5b and a summary of the data for certain siNA molecules is presented in Table 6. Each screen was performed at 24 hrs. The decision to use this time point was based upon the degree of knockdown of the mRNA seen at that time point.

| Substance | Mean (mSCNN1A expression normalized to the level of m36B4) | Percent Reduction of the mSCNN1A mRNA relative to a non-targeting control siNA | Avg ENaCα Expression (mSCNN1A) | Avg 36B4 Expression | IC50 (mouse cell line, dose response, read-out: Mouse IC50 (potency of ENaCα mRNA knockdown)) | Mouse % KD (efficacy of ENaCα mRNA knockdown) (mouse cell line, summary) |
| --- | --- | --- | --- | --- | --- | --- |
| B ccAuccGccuGGuGuGcuc TTB / GAGcAcAccAGGcGGAuGGUU (chain 1 CCAUCCGCCUGGUGUGCUCTT; chain 2 GAGCACACCAGGCGGAUGGUU; siRNA; chain 1: DNA at AGT, 2'-fluoro at CU, [invAb] at 5' end, 3' end, backbone not given here; chain 2: sugars from the 5' end rrrfmfmffmmmfmmmfmmmm, backbone not given here) [Site 311] | 0.23 | 4.6% | 3.83 | 16.80 | – | – |
| B ccGcAuGAAGAcGGccuuc TTB / GAAGGccGucuucAuGcGGUU (chain 1 CCGCAUGAAGACGGCCUUCTT; chain 2 GAAGGCCGUCUUCAUGCGGUU; siRNA; chain 1: DNA at AGT, 2'-fluoro at CU, [invAb] at 5' end, 3' end, backbone not given here; chain 2: sugars from the 5' end rrrmmffmfffffmfmfmmmm, backbone not given here) [Site 339] | 0.35 | −44.9% | 5.05 | 14.61 | – | – |
| B cccuGcuGuccAcAGuGAc TTB / GUCAcuGuGGAcAGcAGGGUU (sense CCCUGCUGUCCACAGUGACTT; antisense GUCACUGUGGACAGCAGGGUU; siRNA; sense: DNA at AGT, 2'-fluoro at CU, [invAb] at 5' end, 3' end, backbone not given here; antisense: sugars from the 5' end rrrmffmfmmmfmmfmmmmmm, backbone not given here) [Site 1121] | 0.27 | −14.5% | 3.39 | 11.45 | – | – |
| B cuGuGcAAccAGAAcAAAu TTB / AUUuGuucuGGuuGcAcAGUU (chain 1 CUGUGCAACCAGAACAAAUTT; chain 2 AUUUGUUCUGGUUGCACAGUU; siRNA; chain 1: DNA at AGT, 2'-fluoro at CU, [invAb] at 5' end, 3' end, backbone not given here; chain 2: sugars from the 5' end rrrfmffffmmffmfmfmmmm, backbone not given here) [Site 781] | 0.22 | 9.8% | 3.50 | 16.49 | – | – |
| B cuccuGuccAAccuGGGcA TTB / UGCccAGGuuGGAcAGGAGUU (sense CUCCUGUCCAACCUGGGCATT; antisense UGCCCAGGUUGGACAGGAGUU; siRNA; sense: DNA at AGT, 2'-fluoro at CU, [invAb] at 5' end, 3' end, backbone not given here; antisense: sugars from the 5' end rrrffmmmffmmmfmmmmmmm, backbone not given here) [Site 1738] | 0.13 | 5.1% | 2.63 | 20.59 | – | – |
| B uGGGcAGccAGuGGAGccu TTB / AGGcuccAcuGGcuGcccAUU (sense UGGGCAGCCAGUGGAGCCUTT; antisense AGGCUCCACUGGCUGCCCAUU; siRNA; sense: DNA at AGT, 2'-fluoro at CU, [invAb] at 5' end, 3' end, backbone not given here; antisense: sugars from the 5' end rrrffffmffmmffmfffmmm, backbone not given here) [Site 1751] | 0.10 | 27.6% | 2.85 | 28.97 | – | – |
| B uGGcuGuGccuAcAucuuc TTB / GAAGAuGuAGGcAcAGccAUU (sense UGGCUGUGCCUACAUCUUCTT; antisense GAAGAUGUAGGCACAGCCAUU; siRNA; sense: DNA at AGT, 2'-fluoro at CU, [invAb] at 5' end, 3' end, backbone not given here; antisense: sugars from the 5' end rrrmmfmfmmmfmfmmffmmm, backbone not given here) [Site 1386] | 0.09 | 31.9% | 2.35 | 25.00 | – | – |
| B uGuGGcuGuGccuAcAucu TTB / AGAuGuAGGcAcAGccAcAUU (sense UGUGGCUGUGCCUACAUCUTT; antisense AGAUGUAGGCACAGCCACAUU; siRNA; sense: DNA at AGT, 2'-fluoro at CU, [invAb] at 5' end, 3' end, backbone not given here; antisense: sugars from the 5' end rrrfmfmmmfmfmmffmfmmm, backbone not given here) [Site 1384] | 0.14 | −0.1% | 3.11 | 20.56 | – | – |
| B uGuGcAAccAGAAcAAAuc TTB / GAUuuGuucuGGuuGcAcAUU (chain 1 UGUGCAACCAGAACAAAUCTT; chain 2 GAUUUGUUCUGGUUGCACAUU; siRNA; B caps on sense ends, letter-case modifications not given here, further chemistry not given here) [Site 782] | 0.05 | 78.2% | 0.85 | 16.72 | 3.9 nM | 78% |
| B uGuccAAccuGGGcAGccA TTB / UGGcuGcccAGGuuGGAcAUU (sense UGUCCAACCUGGGCAGCCATT; antisense UGGCUGCCCAGGUUGGACAUU; siRNA; sense: DNA at AGT, 2'-fluoro at CU, [invAb] at 5' end, 3' end, backbone not given here; antisense: sugars from the 5' end rrrffmfffmmmffmmmfmmm, backbone not given here) [Site 1742] | 0.14 | 1.0% | 2.91 | 21.48 | – | – |
